Values quoted from earlier work in patent US20260174683A1, “CHEWABLE COMPOSITION COMPRISING A GUMMY MATRIX AND COMPRISING MELATONIN, SODIUM ALGINATE, AND CALCIUM LACTATE” (S.I.I.T. S.R.L.-SERVIZIO INTERNAZIONALE IMBALLAGGI …, priority 2022, published 2026).

CC(O)C(=O)[O-].CC(O)C(=O)[O-].[Mg+2] (centres unmarked) [Magnesium lactate, magnesium lactate]
pH of 5% solution in water: 6.5-8.5

CC(O)C(=O)[O-].CC(O)C(=O)[O-].[Ca+2] (centres unmarked) [calcium lactate]
pH of 5% solution in water: 6-8
